Measured values from patent US20170290854A1, “COMPOSITIONS AND METHODS FOR TREATING AND PREVENTING BACTERIAL INFECTIONS” (K10 Technologies, Inc., priority 2014, published 2017).

Assays:
Test in all cases: MIC assay (Experiments II)
Assay type in all cases: cell-based
[1] = test system: Streptococcus mutans ATCC 31341; settings: ATCC31341, S. mutans ATCC 31341, 24 hours, read-out: Minimal inhibitory concentration
Method: (§1) A test sample of water containing water clusters at a concentration of approximately 150 million water clusters per drop of water, with an average water droplet size of 500 microns in diameter, was stored at room temperature until required. The sample of water was prepared according to the methods described in S. Y. Lo et al., Evidence for the existence of stable-water-clusters at room temperature and normal pressure. Physics Letters A (2009)). Linezolid diluted in dimethyl sulfoxide was used as a control.
(§2) The test sample of water containing water clusters was added to the first well of a 96-well plate. 2-fold dilutions were performed into all of the wells of that row containing cation-adjusted Mueller-Hinton Broth (CA-MHB) with 5% lysed horse blood except for the last well, which was used as a control without any testing agent. This was repeated in Brain Heart Infusion (BHI) broth. The Linezolid control followed a similar protocol but was diluted to 8 μg/mL in the first well, followed by 2-fold serial dilutions into both CA-MHB with 5% lysed horse blood and BHI broth.
(§3) Streptococcus mutans ATCC 31341, Streptococcus pneumonia ATCC 49619, and Streptococcus pyogenes ATCC 51339 were obtained from the American Type Culture Collection (Manassas, Va.). All strains were maintained as frozen glycerol stocks at −80° C. Working stocks were prepared by streaking bacteria onto Sheep Blood Agar plates, growing at 37° C. with 5% CO2 for 24 hours and suspending isolated colonies in 3 mL of 0.9% sterile saline to approximately 1×10^8 CFU/mL.
(§4) Bacterial working stocks were diluted into appropriate liquid media for a final inocula of about 5×10^6 CFU/mL. CA-MHB with 5% lysed horse blood was used for all the Streptococcus spp. While BHI broth was also used for S. mutans. 10 μL of stock suspension was added to each well of a 96-well MIC plate treated with the test sample of water containing water clusters. […] The plates were incubated at 35° C. with 5% CO2 for a full 24 hours before reading.

[2] = test system: Streptococcus pneumonia ATCC 49619; settings: Streptococcus pneumoniae, ATCC49619; S. pneumonia ATCC 49619; 24 hours; read-out: Minimal inhibitory concentration
Method: as §1, §2, §3, §4

[3] = test system: Streptococcus pyogenes ATCC 51339; settings: ATCC51339, S. pyogenes ATCC 51339, 24 hours, read-out: Minimal inhibitory concentration
Method: as §1, §2, §3, §4

Measured: MIC

CC(=O)NC[C@H]1CN(c2ccc(N3CCOCC3)c(F)c2)C(=O)O1 [Linezolid]
1 µg/mL: [1] | [2] | [3]
